melting point: 61 to 72 °C
Structure (SMILES): CCCN(CCC)C(=O)c1cc(C)cc(C(=O)N[C@@H](Cc2cc(F)cc(F)c2)[C@@H](O)CCN)c1 [Example 1, 5-amino-1,2,4,5-tetradeoxy-1-(3,5-difluorophenyl)-2-({3-[(dipropylamino)carbonyl]-5-methylbenzoyl}amino)-L-threo-pentitol]

From patent publication US7244755B2, “Hydroxypropylamines” (Pharmacia & Upjohn Company, priority 2001, dated 2007)
